Test results taken from ChEMBL document CHEMBL1201862, “PubChem BioAssay data set” (2004).
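Test compounds were applied to cells in 96-well plates for 48 hours at 5 doses. GI50 marks 50% less growth.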 The source made the active and inactive calls. Rule as the data show it: active = GI50 up to about 1.1 µM and inactive = higher.

Key:
Experiment in all cases: NCI-60 cell line screen, 48 h
SF-295 = system: SF-295
T47D = system: T47D
NCI-H23 = system: NCI-H23
PC-3 = system: PC-3
TK-10 = system: TK-10
KM12 = system: KM12
OVCAR-4 = system: OVCAR-4
SK-MEL-2 = system: SK-MEL-2
K562 = system: K562
RPMI-8226 = system: RPMI-8226
Hs-578T = system: Hs-578T
MCF7 = system: MCF7
CAKI-1 = system: CAKI-1
UO-31 = system: UO-31
A498 = system: A498
SK-MEL-28 = system: SK-MEL-28
SNB-19 = system: SNB-19
DU-145 = system: DU-145
SK-OV-3 = system: SK-OV-3
U-251 = system: U-251

Measured: GI50

CC(C)(C)OC(=O)NCCCCC(N)NC(=O)c1ccccc1 (stereo not drawn)
inactive: SF-295 > 100 µM | T47D > 100 µM | NCI-H23 > 100 µM | PC-3 > 100 µM | TK-10 > 100 µM | KM12 > 100 µM | OVCAR-4 > 100 µM | SK-MEL-2 > 100 µM | K562 > 100 µM | RPMI-8226 > 100 µM | Hs-578T > 100 µM | MCF7 > 100 µM | CAKI-1 > 100 µM | UO-31 > 100 µM | A498 > 100 µM | SK-MEL-28 > 100 µM | SNB-19 > 100 µM | DU-145 > 100 µM | SK-OV-3 > 100 µM | U-251 > 100 µM

O=C1c2cc3c(cc2NC(c2ccccc2F)C1O)OCO3 (stereo not drawn)
inactive: SF-295 12.1 µM | T47D > 59.6 µM | NCI-H23 22.6 µM | PC-3 10.6 µM | TK-10 21 µM | KM12 6.65 µM | OVCAR-4 35.8 µM | SK-MEL-2 24.3 µM | K562 6.85 µM | RPMI-8226 30.5 µM | Hs-578T 18.1 µM | MCF7 5.27 µM | CAKI-1 25.6 µM | UO-31 27.7 µM | A498 13.3 µM | SK-MEL-28 18.5 µM | SNB-19 21.3 µM | DU-145 35 µM | SK-OV-3 17.7 µM | U-251 14.9 µM

C/C=C/C=C\C1OC(O)([C@H](CC)C(=O)NC/C=C/C=C(\C)[C@H](OC)C(C)C2OC(\C=C/C=C/C=C(\C)C(=O)c3c(O)ccn(C)c3=O)[C@H](O)[C@@H]2O)C(O)C(O)C1(C)C (stereo partly drawn)
inactive: SF-295 > 100 µM | T47D 40.2 µM | NCI-H23 > 100 µM | PC-3 64.3 µM | TK-10 > 100 µM | KM12 > 100 µM | OVCAR-4 > 100 µM | SK-MEL-2 > 100 µM | K562 73.5 µM | RPMI-8226 20.3 µM | Hs-578T > 100 µM | MCF7 > 100 µM | CAKI-1 > 100 µM | UO-31 > 100 µM | A498 > 100 µM | SK-MEL-28 > 100 µM | SNB-19 > 100 µM | DU-145 > 100 µM | SK-OV-3 > 100 µM | U-251 > 100 µM

C[N+](C)(C)/N=C\c1ccc(O)c(O)c1
inactive: SF-295 > 100 µM | T47D > 100 µM | NCI-H23 > 100 µM | PC-3 > 100 µM | TK-10 > 100 µM | KM12 > 100 µM | OVCAR-4 > 100 µM | SK-MEL-2 > 100 µM | K562 > 100 µM | RPMI-8226 > 100 µM | Hs-578T > 100 µM | MCF7 > 100 µM | CAKI-1 > 100 µM | UO-31 > 100 µM | A498 > 100 µM | SK-MEL-28 > 59.4 µM | SNB-19 > 100 µM | DU-145 > 100 µM | SK-OV-3 > 100 µM | U-251 > 100 µM

CC(=O)Nc1ccc(-c2nc3cc(Cl)ccc3o2)cc1
inactive: SF-295 > 50 µM | T47D 20.4 µM | NCI-H23 > 50 µM | PC-3 > 50 µM | TK-10 > 50 µM | KM12 > 50 µM | OVCAR-4 > 50 µM | SK-MEL-2 > 50 µM | K562 > 50 µM | RPMI-8226 > 50 µM | Hs-578T > 50 µM | MCF7 > 50 µM | CAKI-1 > 50 µM | UO-31 > 50 µM | A498 > 50 µM | SK-MEL-28 > 50 µM | SNB-19 > 50 µM | DU-145 > 50 µM | SK-OV-3 > 50 µM | U-251 45.7 µM

CN(CCNC(=O)c1c[nH]c2c1ccc1ccccc12)CCNC(=O)c1c[nH]c2c1ccc1ccccc12
inactive: SF-295 2.22 µM | T47D 1.14 µM | NCI-H23 4.39 µM | PC-3 2.26 µM | TK-10 3.21 µM | KM12 1.66 µM | OVCAR-4 3.54 µM | SK-MEL-2 1.99 µM | K562 2.18 µM | RPMI-8226 3.15 µM | Hs-578T 2.94 µM | MCF7 1.43 µM | CAKI-1 2.56 µM | UO-31 1.38 µM | A498 1.53 µM | SK-MEL-28 2 µM | SNB-19 2.23 µM | DU-145 1.99 µM | SK-OV-3 4.23 µM | U-251 2 µM

CN1CCc2[nH]nc(-c3n[nH]c4c3CN(C)CC4)c2C1
inactive: SF-295 > 100 µM | T47D > 100 µM | NCI-H23 > 100 µM | PC-3 > 100 µM | TK-10 > 100 µM | KM12 > 100 µM | OVCAR-4 > 100 µM | SK-MEL-2 > 100 µM | K562 > 100 µM | RPMI-8226 > 100 µM | Hs-578T > 100 µM | MCF7 > 100 µM | CAKI-1 > 100 µM | UO-31 > 100 µM | A498 > 100 µM | SK-MEL-28 44.9 µM | SNB-19 > 100 µM | DU-145 > 100 µM | SK-OV-3 > 100 µM | U-251 > 100 µM

CCCC(=O)OC[n+]1cccc(-c2c(COC(=O)NC(C)C)c(COC(=O)NC(C)C)c3n2CCC3)c1
inactive: SF-295 71.9 µM | T47D > 91.8 µM | NCI-H23 34.8 µM | PC-3 > 86.7 µM | TK-10 > 72.4 µM | KM12 > 100 µM | OVCAR-4 58.6 µM | SK-MEL-2 > 82.6 µM | K562 50.8 µM | RPMI-8226 32.3 µM | Hs-578T > 100 µM | MCF7 40 µM | CAKI-1 8.51 µM | UO-31 38.7 µM | A498 28.5 µM | SK-MEL-28 > 100 µM | SNB-19 > 100 µM | DU-145 43.2 µM | SK-OV-3 > 100 µM | U-251 > 60.7 µM

O=C(c1c2c(cc3c1CC1(Cc4cc5c(cc4C1)CCCC5)C3)CCCC2)C(Br)Br
inactive: SF-295 58.6 µM | T47D 6.38 µM | NCI-H23 14.6 µM | PC-3 12.5 µM | TK-10 17 µM | KM12 22.1 µM | OVCAR-4 12.4 µM | SK-MEL-2 19.2 µM | K562 4.31 µM | RPMI-8226 5.04 µM | Hs-578T 30.8 µM | MCF7 7.67 µM | CAKI-1 11.3 µM | UO-31 13.8 µM | A498 29.7 µM | SK-MEL-28 16.5 µM | SNB-19 > 40.9 µM | DU-145 > 58.5 µM | SK-OV-3 21.4 µM | U-251 16.2 µM

CCc1ccc(CCN2CCCCC2)nc1
inactive: SF-295 > 100 µM | T47D > 100 µM | NCI-H23 > 100 µM | PC-3 > 100 µM | TK-10 > 100 µM | KM12 > 100 µM | OVCAR-4 > 100 µM | SK-MEL-2 > 100 µM | K562 > 100 µM | RPMI-8226 96.8 µM | Hs-578T 56.9 µM | MCF7 > 100 µM | CAKI-1 > 100 µM | UO-31 > 100 µM | A498 > 100 µM | SK-MEL-28 > 100 µM | SNB-19 > 100 µM | DU-145 > 100 µM | SK-OV-3 > 100 µM | U-251 > 100 µM

C=CCc1cccc2cc(C(=O)NC3CCCCC3)c(=N)oc12
inactive: T47D 11.4 µM | NCI-H23 19.9 µM | PC-3 16.1 µM | KM12 16.9 µM | OVCAR-4 20.9 µM | SK-MEL-2 3.98 µM | K562 > 100 µM | RPMI-8226 45.6 µM | Hs-578T 11.3 µM | MCF7 26.2 µM | CAKI-1 16.8 µM | A498 16.7 µM | SK-MEL-28 17.3 µM | SNB-19 21.4 µM | DU-145 16.1 µM | SK-OV-3 24 µM | U-251 27.2 µM

C=C(C)[C@H]1C[C@@H]2O[C@@](O)(/C(C)=C\C(=O)/C=C(/C)C[C@H]3OC(=O)[C@@]24O[C@H]34)[C@@H]1O
inactive: SF-295 > 100 µM | T47D > 100 µM | PC-3 > 100 µM | TK-10 > 100 µM | KM12 > 100 µM | OVCAR-4 > 100 µM | SK-MEL-2 > 100 µM | K562 > 100 µM | RPMI-8226 > 100 µM | Hs-578T > 100 µM | MCF7 > 100 µM | CAKI-1 > 100 µM | A498 > 100 µM | SK-MEL-28 > 100 µM | SNB-19 > 100 µM | DU-145 > 100 µM | SK-OV-3 > 100 µM | U-251 > 100 µM

NC(=S)N/N=C(/C(=O)Nc1nc2ccc([N+](=O)[O-])cc2s1)C1C(=O)NC(=S)NC1=O
inactive: SF-295 42.2 µM | T47D 47.4 µM | NCI-H23 > 100 µM | PC-3 63.1 µM | KM12 > 100 µM | OVCAR-4 23.7 µM | SK-MEL-2 > 100 µM | K562 > 100 µM | RPMI-8226 > 100 µM | Hs-578T 27.7 µM | MCF7 > 100 µM | CAKI-1 45.8 µM | UO-31 63.8 µM | A498 72.3 µM | SK-MEL-28 > 100 µM | SNB-19 76.6 µM | DU-145 > 100 µM | SK-OV-3 > 100 µM | U-251 > 100 µM

O=CN1CCN(C(=O)c2ccc(Cl)c(Cl)c2)C1=S
inactive: SF-295 17.9 µM | T47D 15.3 µM | NCI-H23 20.9 µM | PC-3 14.7 µM | TK-10 16.5 µM | KM12 15.7 µM | OVCAR-4 18.2 µM | SK-MEL-2 15.3 µM | K562 13.8 µM | RPMI-8226 2.84 µM | Hs-578T 39.5 µM | MCF7 4.63 µM | CAKI-1 14.9 µM | A498 15.8 µM | SK-MEL-28 18.2 µM | SNB-19 17.5 µM | DU-145 15.7 µM | SK-OV-3 18.9 µM | U-251 12.5 µM
